Measured values from ChEMBL document CHEMBL4507268 (2021).

Experiments:
[1] = biological target: 5-hydroxytryptamine receptor 1B (Homo sapiens) (UniProt P28222); conditions: Compound concentration 10.0 uM
[2] = biological target: Homeodomain-interacting protein kinase 3 (Homo sapiens) (UniProt Q9H422); conditions: Compound concentration 1000.0 nM
[3] = biological target: Calcium/calmodulin-dependent protein kinase kinase 1 (Homo sapiens) (UniProt Q8N5S9); conditions: Compound concentration 1000.0 nM
Sequence of Calcium/calmodulin-dependent protein kinase kinase 1 (Homo sapiens) (Q8N5S9 whole entry, looked up): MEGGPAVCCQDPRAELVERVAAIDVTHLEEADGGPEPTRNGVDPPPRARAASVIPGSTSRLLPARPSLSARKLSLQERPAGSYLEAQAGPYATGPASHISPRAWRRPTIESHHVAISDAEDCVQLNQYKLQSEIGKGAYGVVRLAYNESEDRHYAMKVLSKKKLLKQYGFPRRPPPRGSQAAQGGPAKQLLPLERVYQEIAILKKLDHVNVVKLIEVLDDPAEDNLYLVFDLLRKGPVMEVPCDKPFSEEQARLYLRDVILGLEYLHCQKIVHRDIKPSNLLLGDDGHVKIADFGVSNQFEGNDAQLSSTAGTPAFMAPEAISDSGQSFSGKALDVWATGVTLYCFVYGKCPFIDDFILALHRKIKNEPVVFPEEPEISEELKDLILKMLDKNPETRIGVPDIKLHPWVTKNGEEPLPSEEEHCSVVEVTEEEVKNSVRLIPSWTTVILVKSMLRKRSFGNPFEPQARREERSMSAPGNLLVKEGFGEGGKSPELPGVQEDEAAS

[4] = biological target: Tyrosine-protein kinase Fer (Homo sapiens) (UniProt P16591); conditions: Compound concentration 1000.0 nM
Sequence of Tyrosine-protein kinase Fer (Homo sapiens) (P16591 whole entry, looked up): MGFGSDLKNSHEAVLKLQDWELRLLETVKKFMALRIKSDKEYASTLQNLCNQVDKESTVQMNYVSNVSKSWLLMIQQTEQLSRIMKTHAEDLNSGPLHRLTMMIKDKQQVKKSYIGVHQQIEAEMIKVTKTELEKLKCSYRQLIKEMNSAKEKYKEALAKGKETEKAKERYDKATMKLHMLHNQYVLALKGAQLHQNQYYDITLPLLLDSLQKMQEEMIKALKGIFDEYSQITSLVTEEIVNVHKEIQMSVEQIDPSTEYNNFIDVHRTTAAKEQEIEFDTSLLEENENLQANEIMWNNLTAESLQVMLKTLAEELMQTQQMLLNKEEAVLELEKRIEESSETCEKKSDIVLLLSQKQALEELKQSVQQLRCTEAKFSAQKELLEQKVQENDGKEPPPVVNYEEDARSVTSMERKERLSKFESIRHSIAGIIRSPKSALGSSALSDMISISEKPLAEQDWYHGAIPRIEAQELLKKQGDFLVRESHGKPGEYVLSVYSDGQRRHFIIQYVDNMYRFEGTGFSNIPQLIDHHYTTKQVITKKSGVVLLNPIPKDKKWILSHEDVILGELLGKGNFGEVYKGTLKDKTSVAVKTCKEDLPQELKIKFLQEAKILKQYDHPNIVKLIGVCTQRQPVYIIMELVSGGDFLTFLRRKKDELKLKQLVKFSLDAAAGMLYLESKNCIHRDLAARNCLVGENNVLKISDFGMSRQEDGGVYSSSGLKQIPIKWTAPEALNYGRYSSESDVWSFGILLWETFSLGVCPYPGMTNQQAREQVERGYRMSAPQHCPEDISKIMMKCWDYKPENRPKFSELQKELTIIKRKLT

[5] = biological target: AP2-associated protein kinase 1 (Homo sapiens) (UniProt Q2M2I8); conditions: Compound concentration 1000.0 nM
[6] = biological target: Serine/threonine-protein kinase PAK 3 (Homo sapiens) (UniProt O75914); conditions: Compound concentration 1000.0 nM
[7] = biological target: Fibroblast growth factor receptor 2 (Homo sapiens) (UniProt P21802); conditions: Compound concentration 1000.0 nM
[8] = biological target: T1, Aurora kinase A (Homo sapiens) (UniProt O14965); conditions: Compound concentration 1000.0 nM
T1 sequence (whole entry): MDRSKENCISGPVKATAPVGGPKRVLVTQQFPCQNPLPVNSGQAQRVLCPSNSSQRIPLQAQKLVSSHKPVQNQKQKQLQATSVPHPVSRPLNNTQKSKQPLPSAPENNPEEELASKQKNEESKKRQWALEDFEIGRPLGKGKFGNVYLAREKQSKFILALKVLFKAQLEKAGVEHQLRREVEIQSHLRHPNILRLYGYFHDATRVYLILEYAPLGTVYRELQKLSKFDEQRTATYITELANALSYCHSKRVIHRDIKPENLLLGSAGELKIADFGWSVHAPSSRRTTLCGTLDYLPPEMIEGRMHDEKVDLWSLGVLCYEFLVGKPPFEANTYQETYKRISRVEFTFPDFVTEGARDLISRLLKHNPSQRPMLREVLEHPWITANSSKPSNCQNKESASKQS

[9] = tested on: SN12C; experiment: Proliferation assay: SN12C (renal cell carcinoma); assay type: functional, cell-based; conditions: Homo sapiens
[10] = biological target: Cyclin-dependent kinase 7 (Homo sapiens) (UniProt P50613); conditions: Compound concentration 1000.0 nM
Sequence of Cyclin-dependent kinase 7 (Homo sapiens) (P50613 whole entry): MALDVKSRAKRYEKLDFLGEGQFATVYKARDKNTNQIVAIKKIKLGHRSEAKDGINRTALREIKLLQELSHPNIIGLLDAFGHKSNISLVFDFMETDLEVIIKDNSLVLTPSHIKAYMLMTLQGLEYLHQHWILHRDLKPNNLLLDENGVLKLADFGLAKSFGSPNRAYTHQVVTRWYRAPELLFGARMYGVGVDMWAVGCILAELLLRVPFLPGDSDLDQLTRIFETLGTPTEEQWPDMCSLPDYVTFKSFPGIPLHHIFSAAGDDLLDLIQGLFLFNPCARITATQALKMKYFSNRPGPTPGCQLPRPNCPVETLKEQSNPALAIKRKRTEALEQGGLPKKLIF

[11] = biological target: Serine/threonine-protein kinase MRCK gamma (Homo sapiens) (UniProt Q6DT37); conditions: Compound concentration 1000.0 nM
[12] = biological target: Serine/threonine-protein kinase 10 (Homo sapiens) (UniProt O94804); conditions: Compound concentration 1000.0 nM
Sequence of Serine/threonine-protein kinase 10 (Homo sapiens) (O94804 whole entry, looked up, canonical isoform): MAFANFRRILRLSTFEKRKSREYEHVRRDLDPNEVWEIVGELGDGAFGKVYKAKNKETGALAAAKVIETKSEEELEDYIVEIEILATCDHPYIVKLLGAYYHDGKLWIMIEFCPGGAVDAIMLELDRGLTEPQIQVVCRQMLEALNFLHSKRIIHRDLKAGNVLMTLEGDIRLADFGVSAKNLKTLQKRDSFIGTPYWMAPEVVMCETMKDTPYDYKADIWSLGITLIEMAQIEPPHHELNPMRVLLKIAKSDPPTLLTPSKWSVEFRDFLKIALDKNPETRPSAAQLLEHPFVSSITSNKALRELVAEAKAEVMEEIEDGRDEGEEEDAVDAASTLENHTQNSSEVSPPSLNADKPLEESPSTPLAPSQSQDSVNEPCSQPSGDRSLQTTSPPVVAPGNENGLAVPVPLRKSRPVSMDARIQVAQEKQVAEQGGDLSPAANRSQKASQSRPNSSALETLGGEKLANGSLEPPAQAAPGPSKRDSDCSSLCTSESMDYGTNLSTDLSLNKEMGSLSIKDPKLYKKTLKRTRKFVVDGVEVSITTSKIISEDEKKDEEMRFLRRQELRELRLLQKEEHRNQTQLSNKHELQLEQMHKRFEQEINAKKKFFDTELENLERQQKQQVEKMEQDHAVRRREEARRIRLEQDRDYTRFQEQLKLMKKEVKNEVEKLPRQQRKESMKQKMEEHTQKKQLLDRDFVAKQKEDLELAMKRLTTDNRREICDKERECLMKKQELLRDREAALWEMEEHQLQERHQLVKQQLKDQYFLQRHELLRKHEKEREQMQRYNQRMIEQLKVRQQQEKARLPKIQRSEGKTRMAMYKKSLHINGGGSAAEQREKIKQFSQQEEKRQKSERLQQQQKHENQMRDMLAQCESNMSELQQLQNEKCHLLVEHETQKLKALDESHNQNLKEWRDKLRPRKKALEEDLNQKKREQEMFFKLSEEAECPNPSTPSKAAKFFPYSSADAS

[13] = biological target: T2, Phosphorylase b kinase regulatory subunit alpha, liver isoform (Homo sapiens) (UniProt P46019); conditions: Compound concentration 1000.0 nM
T2 sequence (whole entry): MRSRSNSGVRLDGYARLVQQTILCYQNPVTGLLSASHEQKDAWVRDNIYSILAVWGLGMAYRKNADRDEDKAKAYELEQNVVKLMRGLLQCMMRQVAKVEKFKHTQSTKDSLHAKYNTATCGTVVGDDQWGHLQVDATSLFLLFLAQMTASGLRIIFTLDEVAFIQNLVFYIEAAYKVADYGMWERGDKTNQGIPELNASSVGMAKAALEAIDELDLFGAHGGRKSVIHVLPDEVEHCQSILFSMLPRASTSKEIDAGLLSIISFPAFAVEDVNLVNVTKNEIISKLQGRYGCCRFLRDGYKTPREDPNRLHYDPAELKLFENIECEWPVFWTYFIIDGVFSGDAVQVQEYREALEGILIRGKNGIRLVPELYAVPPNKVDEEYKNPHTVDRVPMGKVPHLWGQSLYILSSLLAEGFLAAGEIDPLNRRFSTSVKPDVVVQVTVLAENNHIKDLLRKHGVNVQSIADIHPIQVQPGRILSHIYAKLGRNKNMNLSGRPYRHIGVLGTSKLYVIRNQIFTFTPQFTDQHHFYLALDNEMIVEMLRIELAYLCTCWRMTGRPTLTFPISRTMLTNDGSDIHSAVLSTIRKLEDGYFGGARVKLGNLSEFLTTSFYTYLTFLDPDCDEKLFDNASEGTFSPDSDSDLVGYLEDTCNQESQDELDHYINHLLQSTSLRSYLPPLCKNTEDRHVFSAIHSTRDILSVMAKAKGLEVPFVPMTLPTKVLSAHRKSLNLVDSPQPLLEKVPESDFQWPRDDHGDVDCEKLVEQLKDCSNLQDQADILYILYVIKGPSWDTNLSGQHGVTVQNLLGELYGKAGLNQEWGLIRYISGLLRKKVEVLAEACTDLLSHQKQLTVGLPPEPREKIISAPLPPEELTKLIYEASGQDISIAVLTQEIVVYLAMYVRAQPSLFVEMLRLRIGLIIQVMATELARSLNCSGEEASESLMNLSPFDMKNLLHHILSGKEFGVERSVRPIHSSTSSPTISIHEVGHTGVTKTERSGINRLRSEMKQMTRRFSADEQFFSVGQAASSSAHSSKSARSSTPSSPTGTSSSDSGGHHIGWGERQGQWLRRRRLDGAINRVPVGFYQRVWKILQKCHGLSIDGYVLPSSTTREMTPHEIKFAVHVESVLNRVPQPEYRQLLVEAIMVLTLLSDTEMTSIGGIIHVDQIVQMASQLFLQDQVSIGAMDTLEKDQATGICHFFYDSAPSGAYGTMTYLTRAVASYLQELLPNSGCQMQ

[14] = biological target: Serine/threonine-protein kinase 25 (Homo sapiens) (UniProt O00506); conditions: Compound concentration 1000.0 nM
[15] = tested on: ALK tyrosine kinase receptor (Homo sapiens), Q9UM73 [L1196M]; conditions: Compound concentration 1000.0 nM
[16] = biological target: Dual specificity protein kinase CLK2 (Homo sapiens) (UniProt P49760); conditions: Compound concentration 1000.0 nM
Sequence of Dual specificity protein kinase CLK2 (Homo sapiens) (P49760 whole entry, looked up): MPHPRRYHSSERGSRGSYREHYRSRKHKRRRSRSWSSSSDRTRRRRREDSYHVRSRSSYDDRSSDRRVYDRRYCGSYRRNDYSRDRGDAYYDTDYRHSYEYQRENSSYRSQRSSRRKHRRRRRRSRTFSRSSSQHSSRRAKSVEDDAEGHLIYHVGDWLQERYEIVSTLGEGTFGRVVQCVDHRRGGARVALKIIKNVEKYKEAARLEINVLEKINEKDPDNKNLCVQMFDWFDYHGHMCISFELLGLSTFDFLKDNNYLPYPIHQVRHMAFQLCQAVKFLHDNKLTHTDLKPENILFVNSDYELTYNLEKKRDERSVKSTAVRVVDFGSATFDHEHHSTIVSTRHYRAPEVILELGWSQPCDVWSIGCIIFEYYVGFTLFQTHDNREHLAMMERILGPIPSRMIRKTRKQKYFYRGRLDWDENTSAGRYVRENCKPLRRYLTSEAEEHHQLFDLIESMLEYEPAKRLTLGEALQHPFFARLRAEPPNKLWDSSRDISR

[17] = tested on: Tyrosine-protein kinase ABL1 (Homo sapiens), P00519 [H396P]; conditions: Compound concentration 1000.0 nM
[18] = biological target: Calcium/calmodulin-dependent protein kinase type II subunit alpha (Homo sapiens) (UniProt Q9UQM7); conditions: Compound concentration 1000.0 nM
Sequence of Calcium/calmodulin-dependent protein kinase type II subunit alpha (Homo sapiens) (Q9UQM7 whole entry): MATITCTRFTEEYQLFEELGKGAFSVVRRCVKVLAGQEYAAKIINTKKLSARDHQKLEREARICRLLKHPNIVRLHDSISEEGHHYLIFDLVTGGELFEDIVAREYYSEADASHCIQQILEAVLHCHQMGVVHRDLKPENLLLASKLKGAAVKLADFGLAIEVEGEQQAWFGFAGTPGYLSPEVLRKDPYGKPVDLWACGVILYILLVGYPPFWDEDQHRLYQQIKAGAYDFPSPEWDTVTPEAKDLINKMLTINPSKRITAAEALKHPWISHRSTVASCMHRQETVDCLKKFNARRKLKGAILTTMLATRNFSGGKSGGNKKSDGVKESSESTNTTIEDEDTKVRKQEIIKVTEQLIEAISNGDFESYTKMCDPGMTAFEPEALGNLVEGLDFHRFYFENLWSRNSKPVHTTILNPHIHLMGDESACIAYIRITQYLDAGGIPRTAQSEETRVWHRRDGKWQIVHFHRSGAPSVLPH

[19] = biological target: Mitogen-activated protein kinase kinase kinase 10 (Homo sapiens) (UniProt Q02779); conditions: Compound concentration 1000.0 nM
[20] = biological target: STE20/SPS1-related proline-alanine-rich protein kinase (Homo sapiens) (UniProt Q9UEW8); conditions: Compound concentration 1000.0 nM
[21] = tested on: Tyrosine-protein kinase ABL1 (Homo sapiens), P00519 [F317I]; conditions: Compound concentration 1000.0 nM
[22] = biological target: Serine/threonine-protein kinase SIK1 (Homo sapiens) (UniProt P57059); conditions: Compound concentration 1000.0 nM
[23] = tested on: Receptor-type tyrosine-protein kinase FLT3 (Homo sapiens), P36888 [K663Q]; conditions: Compound concentration 1000.0 nM

Sequence of Homeodomain-interacting protein kinase 3 (Homo sapiens) (Q9H422 whole entry, looked up): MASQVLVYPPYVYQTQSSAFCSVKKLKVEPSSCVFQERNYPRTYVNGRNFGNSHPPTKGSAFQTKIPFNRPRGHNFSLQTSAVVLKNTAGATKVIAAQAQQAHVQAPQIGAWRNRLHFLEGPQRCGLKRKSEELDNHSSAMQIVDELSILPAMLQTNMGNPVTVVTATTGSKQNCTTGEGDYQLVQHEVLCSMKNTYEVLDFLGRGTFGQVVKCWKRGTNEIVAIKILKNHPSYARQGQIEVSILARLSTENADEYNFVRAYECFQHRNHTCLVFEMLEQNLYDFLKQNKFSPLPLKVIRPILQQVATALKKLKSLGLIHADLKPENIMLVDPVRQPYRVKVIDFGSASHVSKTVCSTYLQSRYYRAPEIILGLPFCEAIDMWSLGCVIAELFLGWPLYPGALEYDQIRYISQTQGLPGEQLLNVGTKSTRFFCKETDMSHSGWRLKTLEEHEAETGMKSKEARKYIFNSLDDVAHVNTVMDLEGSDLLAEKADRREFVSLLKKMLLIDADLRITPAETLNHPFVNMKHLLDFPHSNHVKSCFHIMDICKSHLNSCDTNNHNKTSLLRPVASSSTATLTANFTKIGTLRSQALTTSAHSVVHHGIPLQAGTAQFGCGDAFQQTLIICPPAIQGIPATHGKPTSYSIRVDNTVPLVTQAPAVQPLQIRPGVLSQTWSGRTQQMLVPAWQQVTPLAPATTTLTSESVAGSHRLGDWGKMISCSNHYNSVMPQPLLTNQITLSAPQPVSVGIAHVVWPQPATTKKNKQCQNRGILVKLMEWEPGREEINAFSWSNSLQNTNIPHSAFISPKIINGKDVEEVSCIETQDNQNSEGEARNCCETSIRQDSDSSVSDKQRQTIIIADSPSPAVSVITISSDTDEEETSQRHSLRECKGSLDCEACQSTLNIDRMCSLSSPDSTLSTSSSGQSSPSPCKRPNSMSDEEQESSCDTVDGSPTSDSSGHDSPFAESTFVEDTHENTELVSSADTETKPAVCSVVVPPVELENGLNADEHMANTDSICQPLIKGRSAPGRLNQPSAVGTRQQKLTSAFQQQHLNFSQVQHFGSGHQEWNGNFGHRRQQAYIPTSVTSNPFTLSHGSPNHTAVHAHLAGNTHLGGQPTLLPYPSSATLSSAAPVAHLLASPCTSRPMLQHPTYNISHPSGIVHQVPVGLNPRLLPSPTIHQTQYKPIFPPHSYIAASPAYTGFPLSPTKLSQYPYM

Q: Which inhibition [1] does the source give for `Cc1nc(C2CCN(C(=O)c3ccc(OC(F)(F)F)cc3N)CC2)c2ncc(N3CCN(C)CC3)cc2n1` [BAY-693] here?
A: 14.6%

Q: And the residual activity [2]?
A: 96%

Q: And the residual activity [3]?
A: 100%

Q: And the residual activity [4]?
A: 99%

Q: What about the residual activity [5] of the same molecule?
A: 100%

Q: What about the residual activity [6] of the same molecule?
A: 100%

Q: And the residual activity [7]?
A: 100%

Q: What about the residual activity [8] of the same molecule?
A: 99%

Q: What about the IC50 [9] of the same molecule?
A: 29.3 µM (not active)

Q: What about the residual activity [10] of the same molecule?
A: 100%

Q: What about the residual activity [11] of the same molecule?
A: 100%

Q: What about the residual activity [12] of the same molecule?
A: 96%

Q: And the residual activity [13]?
A: 100%

Q: And the residual activity [14]?
A: 100%

Q: And the residual activity [15]?
A: 98%

Q: And the residual activity [16]?
A: 100%

Q: What about the residual activity [17] of the same molecule?
A: 89%

Q: What about the residual activity [18] of the same molecule?
A: 93%

Q: What about the residual activity [19] of the same molecule?
A: 100%

Q: And the residual activity [20]?
A: 100%

Q: And the residual activity [21]?
A: 100%

Q: And the residual activity [22]?
A: 100%

Q: And the residual activity [23]?
A: 100%

Q: Which inhibition [1] does the source give for `CN1CCN(c2cnc3c(C4CCN(C(=O)c5ccc(OC(F)(F)F)cc5N)CC4)ncnc3c2)CC1` [BAY-885] here?
A: 14.9%

Q: What about the residual activity [2] of the same molecule?
A: 100%

Q: What about the residual activity [3] of the same molecule?
A: 100%

Q: And the residual activity [4]?
A: 100%

Q: And the residual activity [5]?
A: 100%

Q: What about the residual activity [6] of the same molecule?
A: 88%

Q: What about the residual activity [7] of the same molecule?
A: 100%

Q: And the residual activity [8]?
A: 100%

Q: What about the IC50 [9] of the same molecule?
A: > 30 µM (not active)

Q: And the residual activity [10]?
A: 89%

Q: What about the residual activity [11] of the same molecule?
A: 100%

Q: And the residual activity [12]?
A: 52%

Q: And the residual activity [13]?
A: 100%

Q: What about the residual activity [14] of the same molecule?
A: 92%

Q: And the residual activity [15]?
A: 100%

Q: And the residual activity [16]?
A: 100%

Q: What about the residual activity [17] of the same molecule?
A: 100%

Q: What about the residual activity [18] of the same molecule?
A: 69%

Q: And the residual activity [19]?
A: 100%

Q: And the residual activity [20]?
A: 81%

Q: And the residual activity [21]?
A: 100%

Q: And the residual activity [22]?
A: 92%

Q: And the residual activity [23]?
A: 100%
